Laboratory results taken from US7745411B2, “Methods for promoting erythropoiesis” (University of Southern California, priority 1998, dated 2010).
Entries after “also recorded” stand apart in the source; their conditions may differ.

Test: Unspecified test of effectiveness of AII fragments
Conditions: test not specified

For His-Pro-Phe (HPF) [AII(6-8)], the “effectiveness (tested, effective or not)” value was “not to be effective”.

For “Tyr-Ile-His-Pro-Phe (YIHPF; printed: Tyr-Ile-His-Pro-Phe) [AII(4-8)]”, the “effectiveness (tested, effective or not)” value was “not to be effective; also recorded: ineffective in repeated tests”.
